This note sets out measurements from patent US20250171495A1, “MUTLI-TARGETED SERINE PROTEASE INHIBITORS FOR TREATMENT OF CANCER AND VIRAL INFECTION” (Washington University, priority 2023, published 2025).

Format in all cases: biochemical
One assay has as its target T1, HGFA (Homo sapiens, UniProt Q04756).
T1 construct: purchased R&D Systems 1514-SE-010
T1 sequence (Q04756 408-655 limits assumed): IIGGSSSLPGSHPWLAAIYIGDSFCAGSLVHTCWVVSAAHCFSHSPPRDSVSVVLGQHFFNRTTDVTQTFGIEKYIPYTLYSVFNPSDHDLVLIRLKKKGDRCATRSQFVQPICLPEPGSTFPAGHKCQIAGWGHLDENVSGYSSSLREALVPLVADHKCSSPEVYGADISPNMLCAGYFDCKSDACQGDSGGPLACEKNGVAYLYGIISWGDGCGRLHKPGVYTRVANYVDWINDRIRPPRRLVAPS
T1 sequence (Q04756 373-407 partner limits assumed): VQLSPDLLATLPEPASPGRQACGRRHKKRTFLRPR
Kind of assay: Fluorogenic kinetic enzyme inhibitor assay, HGFA. Conditions: read-out: HGFA IC50.

For a further assay, the target named is T2, Factor Xa (Homo sapiens, UniProt P00742).
T2 construct: TMPRSS2; Matriptase; Hepsin; HGFA; Thrombin; Factor Xa
T2 sequence (P00742 235-488 limits assumed): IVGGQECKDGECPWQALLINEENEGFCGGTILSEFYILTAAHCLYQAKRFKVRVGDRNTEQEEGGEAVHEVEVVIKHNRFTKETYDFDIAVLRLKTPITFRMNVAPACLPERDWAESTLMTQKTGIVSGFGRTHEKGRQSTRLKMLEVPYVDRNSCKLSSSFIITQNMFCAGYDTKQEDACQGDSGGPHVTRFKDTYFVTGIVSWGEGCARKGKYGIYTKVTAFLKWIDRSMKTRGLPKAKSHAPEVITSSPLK
T2 sequence (P00742 41-179 partner limits assumed): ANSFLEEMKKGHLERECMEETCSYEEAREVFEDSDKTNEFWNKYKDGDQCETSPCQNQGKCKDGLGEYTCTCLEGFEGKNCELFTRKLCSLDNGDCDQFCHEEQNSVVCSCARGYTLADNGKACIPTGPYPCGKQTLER
As to the kind of experiment: Fluorogenic assay, Factor Xa. To be noted: read-out: Factor Xa IC50.

In a further assay the target is Thrombin (Homo sapiens, UniProt P00734). As to the kind of experiment: Fluorogenic assay, thrombin.
A further assay has as its target T3, matriptase (Homo sapiens, UniProt Q9Y5Y6).
T3 construct: purchased R&D Systems 3946-SEB-010
T3 sequence (Q9Y5Y6 615-855 limits assumed): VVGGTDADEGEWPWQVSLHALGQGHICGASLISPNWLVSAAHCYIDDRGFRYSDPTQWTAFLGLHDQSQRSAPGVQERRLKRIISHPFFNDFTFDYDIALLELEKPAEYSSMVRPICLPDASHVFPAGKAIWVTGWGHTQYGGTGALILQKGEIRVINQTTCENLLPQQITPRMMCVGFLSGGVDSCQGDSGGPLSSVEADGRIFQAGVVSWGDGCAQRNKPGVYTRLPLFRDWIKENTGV
As to the kind of experiment: Fluorogenic kinetic enzyme inhibitor assay, matriptase.

The next assay deals with T4, hepsin (Homo sapiens, UniProt P05981).
T4 construct: purchased R&D Systems 4776-SE-010
T4 sequence (P05981 163-417 limits assumed): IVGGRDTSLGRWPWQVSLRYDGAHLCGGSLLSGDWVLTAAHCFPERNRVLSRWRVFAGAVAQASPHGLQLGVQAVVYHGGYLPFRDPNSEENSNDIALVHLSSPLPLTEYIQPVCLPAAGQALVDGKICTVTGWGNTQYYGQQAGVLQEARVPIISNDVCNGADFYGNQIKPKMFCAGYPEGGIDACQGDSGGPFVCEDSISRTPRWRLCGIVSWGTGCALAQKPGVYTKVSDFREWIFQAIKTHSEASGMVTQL
T4 sequence (P05981 1-162 partner limits assumed): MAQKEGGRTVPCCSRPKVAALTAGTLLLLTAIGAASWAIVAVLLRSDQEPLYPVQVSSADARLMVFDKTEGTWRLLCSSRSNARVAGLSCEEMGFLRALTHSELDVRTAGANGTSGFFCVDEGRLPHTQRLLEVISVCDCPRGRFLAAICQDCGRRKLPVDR
As to the kind of experiment: Fluorogenic kinetic enzyme inhibitor assay, hepsin. Conditions: read-out: Hepsin IC50.

In a further assay the target is TMPRSS2 (Homo sapiens, UniProt O15393). As to the kind of experiment: Fluorogenic kinetic enzyme inhibitor assay, TMPRSS2. Details: purchased Cusabio Technology CSB-YP023924HU.
TMPRSS2, sequence (O15393 106-492 limits assumed): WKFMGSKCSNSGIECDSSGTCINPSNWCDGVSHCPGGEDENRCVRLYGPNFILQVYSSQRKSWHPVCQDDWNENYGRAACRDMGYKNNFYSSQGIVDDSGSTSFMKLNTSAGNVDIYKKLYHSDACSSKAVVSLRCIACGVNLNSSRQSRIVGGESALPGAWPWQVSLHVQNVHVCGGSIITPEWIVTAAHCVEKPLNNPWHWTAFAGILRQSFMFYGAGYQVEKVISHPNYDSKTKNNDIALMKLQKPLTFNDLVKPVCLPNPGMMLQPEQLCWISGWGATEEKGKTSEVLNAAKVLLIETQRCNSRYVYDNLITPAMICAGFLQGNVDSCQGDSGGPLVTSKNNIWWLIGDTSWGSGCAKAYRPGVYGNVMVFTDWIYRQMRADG
Setting [1] is: 30 min incubation, Boc-QLR-AMC at Km.

SMILES strings stand for the structures. Like-named read-outs stand apart in the source and are kept apart here. Numbered stars: 1 amine (or outer) side, 2 acyl side, 3 side chain; on linkers, the order of the positions; unused ones are H or OH. Square brackets hold non-standard residues; d marks the D form. Peptide text beside a SMILES is read from it. X1 = N=C(N)NCCC[C@H](N[*:1])C(=O)c1nc2ccc(C(=O)[*:2])cc2s1; Phe(4-NO2) = N[C@@H](Cc1ccc([N+](=O)[O-])cc1)C(=O)O

In general, IC50 refers to the concentration that gives 50% inhibition. Turning to `CC(=O)N[C@@H](CO)C(=O)N[C@H](Cc1c[nH]c2ccccc12)C(=O)N[C@@H](CC(C)C)C(=O)N[C@@H](CCCNC(=N)N)C(=O)c1nc2ccc(C(=O)N[C@H](C(N)=O)C(C)C)cc2s1` [JH1114, N-[(S)-1-carbamoyl-2-methylpropyl]-2-[(S)-2-[(S)-2-[(R)-2-[(S)-2-acetylamino-3-hydroxypropionylamino]-3-(3-indolyl)propionylamino]-4-methylvalerylamino]-5-guanidinovaleryl]-1,3-benzothiazole-6-carboxamide] (Ac-S[dW]L[X1]V-NH2), the IC50 was found to be 57.4 nM on HGFA; 1280 nM at Factor Xa; 3.88 µM at Thrombin; 231 nM on matriptase; 1.8 nM at hepsin.

For `CC(=O)N[C@H](Cc1c[nH]c2ccccc12)C(=O)N[C@@H](CCCCNC(=N)N)C(=O)N[C@@H](CCC(C)C)C(=O)N[C@@H](CCCNC(=N)N)C(=O)c1nc2ccccc2s1` [JH1140-2, N-[(S)-1-[(1,3-benzothiazol-2-yl)carbonyl]-4-guanidinobutyl](S)-2-[(S)-1-[(R)-2-acetylamino-3-(3-indolyl)propionylamino]-5-guanidinopentylcarbonylamino]-5-methylhexanamide], the IC50 on HGFA was 4.84 nM; on Factor Xa, 9.12 nM; at Thrombin it was over 20 µM; against matriptase, 0.46 nM; on hepsin it was 0.45 nM.

In the case of `CC(=O)N[C@@H](CCCCNC(=N)N)C(=O)N[C@@H](CCC(C)C)C(=O)N[C@@H](CCCNC(=N)N)C(=O)c1nc2ccccc2s1` [JH1141-2, N-[(S)-1-[(1,3-benzothiazol-2-yl)carbonyl]-4-guanidinobutyl](S)-2-[(S)-1-acetylamino-5-guanidinopentylcarbonylamino]-5-methylhexanamide], the IC50 at HGFA was 10.5 nM; on Factor Xa, 121 nM; at Thrombin, over 20 µM; at matriptase (read-out: Matriptase IC50) it was 1.06 nM; on hepsin, 1.15 nM.

As for `CC(=O)N[C@@H](Cc1cncn1COCc1ccccc1)C(=O)N[C@@H](CCCCNC(=N)N)C(=O)N[C@@H](CCC(C)C)C(=O)N[C@@H](CCCNC(=N)N)C(=O)c1nc2ccccc2s1` [JH1143-2, N-[(S)-1-[(1,3-benzothiazol-2-yl)carbonyl]-4-guanidinobutyl](S)-2-[(S)-1-[(S)-2-acetylamino-3-{1-[(benzyloxy)methyl]-5-imidazolyl}propionylamino]-5-guanidinopentylcarbonylamino]-5-methylhexanamide], the IC50 on HGFA came out at 43.9 nM; at Factor Xa it was 177 nM; on Thrombin, 1.63 µM; against matriptase, 0.862 nM; on hepsin, 0.728 nM.

For `CC(=O)N[C@@H](CO)C(=O)NCc1cccc(CC(=O)N[C@@H](CC(C)C)C(=O)N[C@@H](CCCNC(=N)N)C(=O)c2nc3ccccc3s2)c1` [MM1132-2, N-[(S)-1-[(1,3-benzothiazol-2-yl)carbonyl]-4-guanidinobutyl](S)-2-{[(m-{[(S)-2-acetylamino-3-hydroxypropionylamino]methyl}phenyl)methyl]carbonylamino}-4-methylvaleramide], the IC50 came out at 209 nM on HGFA; 1890 nM on Factor Xa; 9.44 µM against Thrombin; 31 nM on matriptase (read-out: Matriptase IC50); 0.326 nM at hepsin.

With `CC(=O)N[C@@H](CO)C(=O)N[C@@H](Cc1ccc([N+](=O)[O-])cc1)C(=O)N[C@@H](CC(C)C)C(=O)N[C@@H](CCCNC(=N)N)C(=O)c1nc2ccc(C(=O)N[C@H](C(N)=O)C(C)C)cc2s1` [MM1180, N-[(S)-1-carbamoyl-2-methylpropyl]-2-[(S)-2-[(S)-2-[(S)-2-[(S)-2-acetylamino-3-hydroxypropionylamino]-3-(p-nitrophenyl)propionylamino]-4-methylvalerylamino]-5-guanidinovaleryl]-1,3-benzothiazole-6-carboxamide] (Ac-S[Phe(4-NO2)]L[X1]V-NH2), the IC50 was found to be 231 nM at HGFA; 64.2 nM on Factor Xa; 0.134 µM at Thrombin; 133 nM at matriptase; 3.1 nM on hepsin.

In the case of `CCC(C)[C@H](NC(C)=O)C(=O)N[C@@H](CCC(N)=O)C(=O)N[C@@H](CO)C(=O)N[C@@H](CCCNC(=N)N)C(=O)c1nc2ccccc2s1` (stereo partly drawn) [MM3177, N-[(S)-2-hydroxy-1-[N-(S)-1-[(1,3-benzothiazol-2-yl)carbonyl]-4-guanidinobutylcarbamoyl]ethyl](S)-2-[(2S)-2-acetylamino-3-methylvalerylamino]glutaramide], the IC50 on HGFA is 19900 nM; on TMPRSS2 (read-out: TMPRSS2 IC50), 4.55 nM; at Factor Xa, 1730 nM; on Thrombin it was over 20 µM; on hepsin it was 2.42 nM.

Regarding `CCC(C)[C@H](NC(C)=O)C(=O)N[C@@H](CCC(N)=O)C(=O)N[C@H](C(=O)N[C@H](CCCNC(=N)N)C(=O)c1nc2ccccc2s1)C(C)C` (stereo partly drawn) [MM3180-1, N-[(S)-2-methyl-1-[N-(R)-1-[(1,3-benzothiazol-2-yl)carbonyl]-4-guanidinobutylcarbamoyl]propyl](S)-2-[(2S)-2-acetylamino-3-methylvalerylamino]glutaramide], the IC50 is 14600 nM at HGFA, 2.89 nM on TMPRSS2 (read-out: TMPRSS2 IC50), over 20000 nM at Factor Xa and over 20 µM at Thrombin.

With `CCC(C)[C@H](NC(C)=O)C(=O)N[C@@H](CCC(N)=O)C(=O)N[C@H](C(=O)N[C@@H](CCCNC(=N)N)C(=O)c1nc2ccccc2s1)C(C)O` (stereo partly drawn) [MM3186, N-[(1S)-2-hydroxy-1-[N-(S)-1-[(1,3-benzothiazol-2-yl)carbonyl]-4-guanidinobutylcarbamoyl]propyl](S)-2-[(2S)-2-acetylamino-3-methylvalerylamino]glutaramide], the IC50 at HGFA was 18400 nM; on TMPRSS2 (read-out: TMPRSS2 IC50), 0.173 nM; on Factor Xa it was over 20000 nM; against Thrombin, over 20 µM; against matriptase, 15.5 nM.

With `CC(=O)N[C@H]1CC(=O)NCCCC[C@@H](C(=O)N[C@@H](CCCNC(=N)N)C(=O)c2nc3ccccc3s2)NC(=O)[C@H](CCC(N)=O)NC1=O` [VD3152, N-[(S)-1-[(1,3-benzothiazol-2-yl)carbonyl]-4-guanidinobutyl]-(3S,6S,14S)-6-acetylamino-3-(2-carbamoylethyl)-2,5,8-trioxo-1,4,9-triaza-14-cyclotetradecane-carboxamide], the IC50 is 16100 nM on HGFA (setting [1]), 24.3 nM on TMPRSS2 (read-out: TMPRSS2 IC50), over 20 µM against Thrombin and 7.7 nM at matriptase (read-out: Matriptase IC50).

For the compound `CC(=O)N[C@H]1Cc2cn(nn2)CCCC[C@H](C(=O)N[C@@H](CCCNC(=N)N)C(=O)c2nc3ccccc3s2)NC(=O)[C@H](CC(C)C)NC1=O` [VD4090, N-[(S)-1-[(1,3-benzothiazol-2-yl)carbonyl]-4-guanidinobutyl]-(6R,9S,12S)-12-acetylamino-9-isobutyl-8,11-dioxo-1,7,10,15,16-pentaazabicyclo[12.2.1]heptadeca-14(17),15-diene-6-carboxamide], the IC50 at HGFA (setting [1]) was 3080 nM; at TMPRSS2 (30 min incubation, Boc-QAR-AMC at Km, read-out: TMPRSS2 IC50) it was 4.19 nM; at Factor Xa it was 4290 nM; at Thrombin, over 20 µM.

Take `CC(=O)N[C@H]1Cc2ccc(cc2)OCCCC[C@@H](C(=O)N[C@@H](CCCNC(=N)N)C(=O)c2nc3ccccc3s2)NC(=O)[C@H](Cc2ccccc2)NC1=O` [VD4111B, N-[(S)-1-[(1,3-benzothiazol-2-yl)carbonyl]-4-guanidinobutyl]-(7S,10S,13S)-13-acetylamino-10-benzyl-9,12-dioxo-2-oxa-8,11-diazabicyclo[13.2.2]nonadeca-1(17),15,18-triene-7-carboxamide]: the IC50 is 16.4 nM at TMPRSS2 (read-out: TMPRSS2 IC50), 8700 nM on Factor Xa and over 20 µM against Thrombin.

Consider `CC(=O)N[C@@H](CO)C(=O)N[C@@H](CCCCN)C(=O)N[C@@H](CC(C)C)C(=O)N[C@@H](CCCNC(=N)N)C(=O)c1nc2ccccc2s1` [ZFH7053, N-[(S)-3-methyl-1-[N-(S)-1-[(1,3-benzothiazol-2-yl)carbonyl]-4-guanidinobutylcarbamoyl]butyl](S)-2-[(S)-2-acetylamino-3-hydroxypropionylamino]-6-aminohexanamide], for which the IC50 at HGFA (setting [1]) stood at 66 nM; at TMPRSS2, 39.2 nM; on Factor Xa, 3800 nM; on matriptase (read-out: Matriptase IC50), 6.1 nM; at hepsin, 0.32 nM.
